Test results as given in ChEMBL document CHEMBL3132769, “Fragment growing to retain or alter the selectivity of anchored kinase hinge-binding fragments” (Medchemcomm, 2014).

What was measured:
[1] = target: T1, Serine/threonine-protein kinase D3 (Homo sapiens) (UniProt O94806); experiment: Inhibition of human full length PKD3 expressed in baculovirus assessed as substrate phosphorylation using fluorescence-labelled peptides as substrate at 70 uM after 90 mins by microfluidic peptide phosphorylation assay
T1 sequence (whole entry): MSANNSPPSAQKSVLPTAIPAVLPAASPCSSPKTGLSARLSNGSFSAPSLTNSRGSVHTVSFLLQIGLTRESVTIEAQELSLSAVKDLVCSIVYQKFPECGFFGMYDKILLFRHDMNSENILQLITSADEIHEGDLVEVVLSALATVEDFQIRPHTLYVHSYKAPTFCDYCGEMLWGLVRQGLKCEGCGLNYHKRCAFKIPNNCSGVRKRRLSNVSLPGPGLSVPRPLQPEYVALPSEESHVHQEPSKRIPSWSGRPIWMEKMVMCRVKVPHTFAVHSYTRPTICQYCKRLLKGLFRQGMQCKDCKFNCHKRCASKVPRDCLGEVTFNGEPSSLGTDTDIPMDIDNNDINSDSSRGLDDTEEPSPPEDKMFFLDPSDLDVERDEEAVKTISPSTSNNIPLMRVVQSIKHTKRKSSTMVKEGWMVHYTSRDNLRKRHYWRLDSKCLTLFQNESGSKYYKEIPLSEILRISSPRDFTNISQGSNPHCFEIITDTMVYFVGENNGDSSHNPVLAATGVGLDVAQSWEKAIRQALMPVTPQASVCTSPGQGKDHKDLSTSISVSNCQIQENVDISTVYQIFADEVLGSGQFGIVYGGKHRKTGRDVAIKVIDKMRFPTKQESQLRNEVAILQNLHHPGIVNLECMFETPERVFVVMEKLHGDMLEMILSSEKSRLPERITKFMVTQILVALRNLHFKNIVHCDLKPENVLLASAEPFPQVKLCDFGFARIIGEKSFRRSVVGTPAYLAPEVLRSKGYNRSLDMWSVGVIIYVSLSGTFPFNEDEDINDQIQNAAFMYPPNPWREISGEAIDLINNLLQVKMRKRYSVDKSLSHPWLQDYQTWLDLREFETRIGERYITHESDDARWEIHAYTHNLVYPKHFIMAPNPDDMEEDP

[2] = tested on: Tyrosine-protein kinase ABL1 (Homo sapiens), P00519 [H396P]; experiment: Inhibition of human truncated ABL H396P mutant expressed in baculovirus assessed as substrate phosphorylation using fluorescence-labelled peptides as substrate at 70 uM after 90 mins by microfluidic peptide phosphorylation assay
[3] = target: Receptor-type tyrosine-protein kinase FLT3 (Homo sapiens) (UniProt P36888); experiment: Inhibition of human FLT3 catalytic domain expressed in baculovirus assessed as substrate phosphorylation using fluorescence-labelled peptides as substrate at 0.2 uM after 90 mins by microfluidic peptide phosphorylation assay
[4] = tested on: Fibroblast growth factor receptor 2 (Homo sapiens), P21802 [N549H]; experiment: Inhibition of human FGFR2 N549H mutant catalytic domain expressed in baculovirus assessed as substrate phosphorylation using fluorescence-labelled peptides as substrate at 0.2 uM after 90 mins by microfluidic peptide phosphorylation assay
Chain of Fibroblast growth factor receptor 2 (Homo sapiens), P21802 [N549H] (P21802 whole entry N549H, the tested form may be a part): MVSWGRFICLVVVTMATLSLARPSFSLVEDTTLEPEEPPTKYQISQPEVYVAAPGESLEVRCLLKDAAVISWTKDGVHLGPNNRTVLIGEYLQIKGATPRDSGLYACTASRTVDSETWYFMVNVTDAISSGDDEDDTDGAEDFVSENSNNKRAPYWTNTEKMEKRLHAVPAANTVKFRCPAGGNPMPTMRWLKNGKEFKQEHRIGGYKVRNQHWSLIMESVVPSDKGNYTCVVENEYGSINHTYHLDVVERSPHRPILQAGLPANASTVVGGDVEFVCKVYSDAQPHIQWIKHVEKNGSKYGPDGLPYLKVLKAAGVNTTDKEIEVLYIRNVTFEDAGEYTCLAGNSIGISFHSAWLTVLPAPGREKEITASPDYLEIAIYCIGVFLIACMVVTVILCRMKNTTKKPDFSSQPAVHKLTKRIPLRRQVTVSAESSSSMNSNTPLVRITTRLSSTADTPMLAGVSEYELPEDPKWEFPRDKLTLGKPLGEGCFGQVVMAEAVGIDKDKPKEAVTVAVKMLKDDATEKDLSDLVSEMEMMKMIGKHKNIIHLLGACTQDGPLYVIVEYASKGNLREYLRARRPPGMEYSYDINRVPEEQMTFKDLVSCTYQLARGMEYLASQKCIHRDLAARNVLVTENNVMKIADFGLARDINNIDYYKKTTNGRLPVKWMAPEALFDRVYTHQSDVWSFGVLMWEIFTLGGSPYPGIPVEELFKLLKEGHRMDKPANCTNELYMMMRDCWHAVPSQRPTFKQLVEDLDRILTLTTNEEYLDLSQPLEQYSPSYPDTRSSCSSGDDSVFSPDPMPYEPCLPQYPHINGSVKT

[5] = target: T2, Aurora kinase A (Homo sapiens) (UniProt O14965); experiment: Inhibition of human full length AurA expressed in baculovirus assessed as substrate phosphorylation using fluorescence-labelled peptides as substrate at 0.2 uM after 90 mins by microfluidic peptide phosphorylation assay
T2 sequence (whole entry): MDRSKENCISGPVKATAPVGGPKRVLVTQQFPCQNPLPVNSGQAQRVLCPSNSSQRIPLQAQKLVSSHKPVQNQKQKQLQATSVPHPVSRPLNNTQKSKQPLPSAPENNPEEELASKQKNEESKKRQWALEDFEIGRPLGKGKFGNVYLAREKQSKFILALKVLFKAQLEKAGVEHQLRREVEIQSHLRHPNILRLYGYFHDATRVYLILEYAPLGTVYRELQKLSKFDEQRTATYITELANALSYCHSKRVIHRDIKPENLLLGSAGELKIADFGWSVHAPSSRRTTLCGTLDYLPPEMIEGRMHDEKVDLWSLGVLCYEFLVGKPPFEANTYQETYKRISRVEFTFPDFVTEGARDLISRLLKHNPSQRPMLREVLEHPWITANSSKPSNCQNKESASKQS

[6] = target: T3, Serine/threonine-protein kinase Sgk1 (Homo sapiens) (UniProt O00141); experiment: Inhibition of human truncated SGK1 expressed in baculovirus assessed as substrate phosphorylation using fluorescence-labelled peptides as substrate at 420 uM after 90 mins by microfluidic peptide phosphorylation assay
T3 sequence (whole entry): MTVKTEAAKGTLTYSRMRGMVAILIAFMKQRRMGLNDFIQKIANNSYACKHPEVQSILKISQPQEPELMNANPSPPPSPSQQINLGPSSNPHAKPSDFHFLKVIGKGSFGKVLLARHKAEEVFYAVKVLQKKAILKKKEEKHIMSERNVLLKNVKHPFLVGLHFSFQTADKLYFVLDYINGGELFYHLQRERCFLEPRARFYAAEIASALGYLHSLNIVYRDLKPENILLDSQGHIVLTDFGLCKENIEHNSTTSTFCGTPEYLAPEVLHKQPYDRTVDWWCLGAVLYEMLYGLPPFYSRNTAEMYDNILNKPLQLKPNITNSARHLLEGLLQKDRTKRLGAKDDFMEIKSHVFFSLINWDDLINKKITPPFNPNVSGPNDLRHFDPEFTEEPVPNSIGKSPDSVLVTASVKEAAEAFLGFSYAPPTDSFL

[7] = target: Vascular endothelial growth factor receptor 2 (Homo sapiens) (UniProt P35968); experiment: Inhibition of human KDR cytoplasmic domain expressed in baculovirus assessed as substrate phosphorylation using fluorescence-labelled peptides as substrate at 420 uM after 90 mins by microfluidic peptide phosphorylation assay
Chain of Vascular endothelial growth factor receptor 2 (Homo sapiens) (P35968 whole entry, the tested form may be a part): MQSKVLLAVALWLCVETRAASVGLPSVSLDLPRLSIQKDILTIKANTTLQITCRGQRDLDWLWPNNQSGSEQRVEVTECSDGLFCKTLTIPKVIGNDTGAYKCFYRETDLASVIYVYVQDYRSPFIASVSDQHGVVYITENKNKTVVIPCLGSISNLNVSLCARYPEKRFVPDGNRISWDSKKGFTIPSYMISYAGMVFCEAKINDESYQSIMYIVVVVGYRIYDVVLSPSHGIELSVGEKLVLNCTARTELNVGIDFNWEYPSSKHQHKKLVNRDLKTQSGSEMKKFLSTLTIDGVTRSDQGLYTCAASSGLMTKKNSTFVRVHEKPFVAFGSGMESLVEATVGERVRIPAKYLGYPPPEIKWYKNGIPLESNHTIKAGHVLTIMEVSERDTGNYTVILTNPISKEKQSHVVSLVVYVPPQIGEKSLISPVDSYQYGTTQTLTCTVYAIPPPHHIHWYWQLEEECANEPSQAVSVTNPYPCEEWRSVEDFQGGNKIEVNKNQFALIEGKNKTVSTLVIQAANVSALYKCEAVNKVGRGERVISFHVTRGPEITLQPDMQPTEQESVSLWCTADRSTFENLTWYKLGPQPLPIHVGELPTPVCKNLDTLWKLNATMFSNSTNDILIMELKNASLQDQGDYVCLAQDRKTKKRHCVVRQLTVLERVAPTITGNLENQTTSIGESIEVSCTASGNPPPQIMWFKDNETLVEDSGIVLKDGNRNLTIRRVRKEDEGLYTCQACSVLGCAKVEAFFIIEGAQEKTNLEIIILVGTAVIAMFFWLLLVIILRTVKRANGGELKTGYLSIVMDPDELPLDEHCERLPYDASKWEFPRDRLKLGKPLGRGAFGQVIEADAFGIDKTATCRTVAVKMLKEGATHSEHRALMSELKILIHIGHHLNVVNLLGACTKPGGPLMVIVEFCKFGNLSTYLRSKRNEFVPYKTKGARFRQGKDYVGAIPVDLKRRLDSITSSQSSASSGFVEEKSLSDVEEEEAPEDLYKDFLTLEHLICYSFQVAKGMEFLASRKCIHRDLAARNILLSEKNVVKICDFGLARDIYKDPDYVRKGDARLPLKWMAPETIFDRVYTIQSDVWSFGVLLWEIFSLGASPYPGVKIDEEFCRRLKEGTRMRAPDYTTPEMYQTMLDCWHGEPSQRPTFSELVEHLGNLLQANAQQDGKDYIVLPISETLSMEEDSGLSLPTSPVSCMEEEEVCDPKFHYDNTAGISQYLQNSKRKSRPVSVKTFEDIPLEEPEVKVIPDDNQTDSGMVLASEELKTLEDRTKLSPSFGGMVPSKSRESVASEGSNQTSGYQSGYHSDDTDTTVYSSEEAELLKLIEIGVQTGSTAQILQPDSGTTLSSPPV

[8] = target: Vascular endothelial growth factor receptor 2 (Homo sapiens) (UniProt P35968); experiment: Inhibition of human KDR cytoplasmic domain expressed in baculovirus assessed as substrate phosphorylation using fluorescence-labelled peptides as substrate at 95 uM after 90 mins by microfluidic peptide phosphorylation assay
[9] = target: Protein kinase C alpha type (Homo sapiens) (UniProt P17252); experiment: Inhibition of human truncated PKC alpha expressed in baculovirus assessed as substrate phosphorylation using fluorescence-labelled peptides as substrate at 9 uM after 90 mins by microfluidic peptide phosphorylation assay
[10] = target: Tyrosine-protein kinase ABL2 (Homo sapiens) (UniProt P42684); experiment: Inhibition of human truncated Arg expressed in baculovirus assessed as substrate phosphorylation using fluorescence-labelled peptides as substrate at 9 uM after 90 mins by microfluidic peptide phosphorylation assay
Chain of Tyrosine-protein kinase ABL2 (Homo sapiens) (P42684 whole entry, the tested form may be a part): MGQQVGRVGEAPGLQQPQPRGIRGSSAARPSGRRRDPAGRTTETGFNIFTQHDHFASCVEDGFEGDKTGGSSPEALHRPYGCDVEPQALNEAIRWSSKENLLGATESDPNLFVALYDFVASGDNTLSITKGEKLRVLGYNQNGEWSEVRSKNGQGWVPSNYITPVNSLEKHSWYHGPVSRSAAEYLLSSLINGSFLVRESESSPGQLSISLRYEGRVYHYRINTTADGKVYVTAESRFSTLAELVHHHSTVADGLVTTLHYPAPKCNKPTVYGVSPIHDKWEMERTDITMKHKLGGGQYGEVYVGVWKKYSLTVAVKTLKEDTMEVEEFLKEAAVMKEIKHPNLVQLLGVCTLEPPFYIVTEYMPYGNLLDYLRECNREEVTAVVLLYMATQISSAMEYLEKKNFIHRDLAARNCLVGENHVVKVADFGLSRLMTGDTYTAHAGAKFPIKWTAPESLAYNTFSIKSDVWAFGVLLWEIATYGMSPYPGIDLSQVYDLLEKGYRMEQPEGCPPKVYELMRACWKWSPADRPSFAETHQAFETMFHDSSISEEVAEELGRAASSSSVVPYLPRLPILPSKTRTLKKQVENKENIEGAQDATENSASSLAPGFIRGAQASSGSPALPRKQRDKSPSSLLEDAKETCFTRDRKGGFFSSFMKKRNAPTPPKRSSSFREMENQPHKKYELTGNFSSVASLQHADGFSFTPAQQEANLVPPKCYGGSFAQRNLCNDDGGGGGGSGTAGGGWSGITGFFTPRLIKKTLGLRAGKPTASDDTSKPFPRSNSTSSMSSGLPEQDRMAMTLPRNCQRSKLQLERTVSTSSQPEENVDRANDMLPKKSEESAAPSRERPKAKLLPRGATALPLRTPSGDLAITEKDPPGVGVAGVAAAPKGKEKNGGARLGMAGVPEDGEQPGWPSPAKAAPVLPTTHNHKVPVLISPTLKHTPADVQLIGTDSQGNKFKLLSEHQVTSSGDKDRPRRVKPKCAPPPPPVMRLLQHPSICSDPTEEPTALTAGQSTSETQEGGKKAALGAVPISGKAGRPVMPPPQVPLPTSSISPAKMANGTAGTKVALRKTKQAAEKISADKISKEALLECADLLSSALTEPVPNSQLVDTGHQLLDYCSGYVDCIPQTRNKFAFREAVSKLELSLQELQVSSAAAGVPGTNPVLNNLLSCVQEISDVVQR

[11] = target: Serine/threonine-protein kinase MARK2 (Homo sapiens) (UniProt Q7KZI7); experiment: Inhibition of human full length MARK2 expressed in baculovirus assessed as substrate phosphorylation using fluorescence-labelled peptides as substrate at 2 uM after 90 mins by microfluidic peptide phosphorylation assay
Chain of Serine/threonine-protein kinase MARK2 (Homo sapiens) (Q7KZI7 whole entry): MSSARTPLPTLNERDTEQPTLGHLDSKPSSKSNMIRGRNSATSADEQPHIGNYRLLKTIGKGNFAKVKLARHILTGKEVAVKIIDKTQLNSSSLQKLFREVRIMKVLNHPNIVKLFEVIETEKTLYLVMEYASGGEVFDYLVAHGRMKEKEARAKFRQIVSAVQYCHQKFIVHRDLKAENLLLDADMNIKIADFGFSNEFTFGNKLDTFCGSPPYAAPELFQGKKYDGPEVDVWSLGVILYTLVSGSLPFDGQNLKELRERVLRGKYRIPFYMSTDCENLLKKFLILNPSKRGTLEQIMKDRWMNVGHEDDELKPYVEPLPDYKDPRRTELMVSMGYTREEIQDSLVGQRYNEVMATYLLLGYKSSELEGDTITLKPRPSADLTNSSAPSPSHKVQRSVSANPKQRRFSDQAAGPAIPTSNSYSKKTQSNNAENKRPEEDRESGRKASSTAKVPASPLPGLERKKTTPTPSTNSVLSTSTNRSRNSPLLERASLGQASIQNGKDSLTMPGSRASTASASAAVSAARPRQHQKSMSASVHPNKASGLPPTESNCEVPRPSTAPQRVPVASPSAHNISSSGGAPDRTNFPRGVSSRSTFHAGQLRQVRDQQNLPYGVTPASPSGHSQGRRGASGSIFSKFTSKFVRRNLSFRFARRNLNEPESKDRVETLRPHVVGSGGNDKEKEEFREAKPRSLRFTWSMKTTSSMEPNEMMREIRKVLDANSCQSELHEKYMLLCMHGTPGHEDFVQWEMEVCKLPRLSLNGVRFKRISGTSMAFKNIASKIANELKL

[12] = target: Calcium/calmodulin-dependent protein kinase type II subunit beta (Homo sapiens) (UniProt Q13554); details: 0.1 uM
Chain of Calcium/calmodulin-dependent protein kinase type II subunit beta (Homo sapiens) (Q13554 whole entry): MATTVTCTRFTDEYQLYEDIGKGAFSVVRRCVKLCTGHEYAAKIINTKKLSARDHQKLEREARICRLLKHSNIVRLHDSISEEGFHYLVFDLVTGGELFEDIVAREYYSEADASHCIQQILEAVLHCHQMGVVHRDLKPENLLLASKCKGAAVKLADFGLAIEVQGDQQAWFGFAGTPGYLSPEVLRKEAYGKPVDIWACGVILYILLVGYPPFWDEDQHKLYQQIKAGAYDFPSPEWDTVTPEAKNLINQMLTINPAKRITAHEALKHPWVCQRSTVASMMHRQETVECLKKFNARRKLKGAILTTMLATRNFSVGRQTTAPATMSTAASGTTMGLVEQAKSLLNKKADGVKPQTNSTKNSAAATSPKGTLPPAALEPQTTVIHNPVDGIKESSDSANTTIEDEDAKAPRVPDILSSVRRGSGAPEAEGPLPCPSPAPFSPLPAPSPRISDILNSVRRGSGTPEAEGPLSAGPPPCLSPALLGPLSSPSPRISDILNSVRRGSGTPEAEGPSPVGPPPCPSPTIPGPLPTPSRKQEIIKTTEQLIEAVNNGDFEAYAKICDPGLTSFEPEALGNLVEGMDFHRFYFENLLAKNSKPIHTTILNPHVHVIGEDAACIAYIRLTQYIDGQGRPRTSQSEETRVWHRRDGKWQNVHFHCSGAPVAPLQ
Description: Inhibition of human CAMK2 beta catalytic domain expressed in baculovirus assessed as substrate phosphorylation using fluorescence-labelled peptides as substrate at 0.1 uM after 90 mins by microfluidic peptide phosphorylation assay

Work on `CNCc1ccc(-c2ncnc3[nH]cnc23)cc1` yielded an inhibition [1] of 72.5% and an inhibition [2] of 42.5%.
Compound `Clc1ccc(C2(c3ccc(-c4ncnc5[nH]cnc45)cc3)CCNCC2)cc1` has an inhibition [3] of 7.5%, an inhibition [4] of 7% and an inhibition [5] of 49%.
In the case of `c1nc(N2CCOCC2)c2nc[nH]c2n1`, the inhibition [6] is reported as 83.5% and the inhibition [7] is reported as 95.5%.
Work on `NCCc1ccc(-c2ncnc3[nH]cnc23)cc1` yielded an inhibition [8] of 72.5%.
`NCC1CN(c2ncnc3[nH]c4cnccc4c23)CCO1` (configuration not stated) showed an inhibition [9] of 14.5% and an inhibition [10] of 6.5%.
For `NC1CCN(c2ncnc3[nH]ccc23)CC1`, the inhibition [11] was 0%.
`C[C@H](CN(C)C)Oc1nc(Nc2cc3cccc(Cl)c3cn2)cnc1C#N` was tested, and the inhibition [12] was 0%.
